Assay results from PubChem BioAssay (NCI).
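Where inhibition never reached the appropriate level, the endpoint shown equals the highest concentration tested. Otherwise, values were interpolated linearly from a five-concentration, 48-hour dose response in 96-well plates. GI50 = concentration required for 50% inhibition of growth. The concentration for full growth arrest is given as TGI.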

Assays:
Assay in all cases: inhibition of tumour cell growth, NCI panel, 48 h
[1] = system: EKVX NSCLC
[2] = system: HL-60(TB) leukemia
[3] = system: KM12 colon
[4] = system: LOX IMVI melanoma
[5] = system: M14 melanoma
[6] = system: MALME-3M melanoma
[7] = system: NCI-H23 lung
[8] = system: RPMI-8226 leukemia
[9] = system: SF-539 CNS
[10] = system: SNB-75 CNS

| SMILES | TGI [1] | TGI [2] | TGI [3] | TGI [4] | TGI [5] | TGI [6] | TGI [7] | TGI [8] | TGI [9] | TGI [10] | GI50 [1] | GI50 [2] | GI50 [3] | GI50 [4] | GI50 [5] | GI50 [6] | GI50 [7] | GI50 [8] | GI50 [9] | GI50 [10] |
| --- | --- | --- | --- | --- | --- | --- | --- | --- | --- | --- | --- | --- | --- | --- | --- | --- | --- | --- | --- | --- |
| C=C(CN(CC(=C)C(=O)c1ccccc1)C(C)(C)C)C(=O)c1ccccc1 | 44.4 µM | 9.7 µM | 17.6 µM | 30.8 µM | 23 µM | 29.7 µM | 32.7 µM | 68.4 µM | 31.5 µM | 17.6 µM | – | – | – | – | – | – | – | – | – | – |
| O=C(Nc1cnn2ccc(N3CCC[C@@H]3c3cc(F)ccc3F)nc12)N1CC[C@H](O)C1 | > 100 µM | > 100 µM | > 100 µM | > 100 µM | > 100 µM | > 100 µM | > 100 µM | > 100 µM | > 100 µM | > 100 µM | > 100 µM | > 100 µM | 0.0122 µM | > 100 µM | > 100 µM | > 100 µM | > 100 µM | > 100 µM | > 100 µM | > 100 µM |
| COc1cc2cc(Oc3ccc(NC(=O)Nc4ccccc4)cc3)c(C)nc2cc1OCCN1CCCCC1 | 10.9 µM | 13.3 µM | 14.3 µM | 10.1 µM | 11.1 µM | 10.9 µM | 13.7 µM | 10.8 µM | 10.3 µM | 8.74 µM | 5.22 µM | 6.43 µM | 6.8 µM | 5.38 µM | 5.63 µM | 5.96 µM | 6.4 µM | 3.52 µM | 5.46 µM | 3.76 µM |
| CC(C)(C)OC(=O)NCCCCCCCCn1c2c(c3ccccc3c1=O)C(=O)c1ccccc1-2 | > 50 µM | > 50 µM | > 50 µM | > 50 µM | > 50 µM | > 43.7 µM | > 50 µM | > 50 µM | 29.6 µM | 29.2 µM | 43.5 µM | > 50 µM | > 40.4 µM | > 32 µM | > 50 µM | > 15.9 µM | 20.4 µM | > 50 µM | 9.64 µM | 10.6 µM |
| FC(F)(F)c1ccc(C=NC23CC4CC(CC(C4)C2)C3)cc1 | > 100 µM | > 100 µM | > 100 µM | > 100 µM | > 100 µM | > 100 µM | > 100 µM | > 100 µM | > 100 µM | > 100 µM | – | – | – | – | – | – | – | – | – | – |
| Cc1ccc(S(=O)(=O)CNC(=S)CCCC(=S)NCS(=O)(=O)c2ccc(C)cc2)cc1 | > 100 µM | > 100 µM | > 100 µM | 39.4 µM | > 100 µM | > 100 µM | > 100 µM | > 100 µM | > 100 µM | > 100 µM | – | – | – | – | – | – | – | – | – | – |
| CC(CN)[C@@H]1CC[C@]2(CO)CC[C@]3(C)[C@H](CC[C@@H]4[C@@]5(C)CCC(NCCO)C(C)(C)[C@@H]5CC[C@]43C)[C@@H]12 (stereo partly specified) | 5.01 µM | 7.47 µM | 4.14 µM | 3.12 µM | 3.68 µM | 3.16 µM | 5.47 µM | 4.5 µM | 3.02 µM | 3.12 µM | 2.1 µM | 2.65 µM | 1.9 µM | 1.64 µM | 1.92 µM | 1.62 µM | 2.29 µM | 1.89 µM | 1.61 µM | 1.3 µM |
| O=C(CC/C(C/C(=N/O)c1ccc(F)cc1)=N/O)N(Cc1ccccc1)Cc1ccccc1 | > 100 µM | > 100 µM | > 100 µM | > 100 µM | > 100 µM | > 100 µM | > 100 µM | > 100 µM | > 100 µM | > 100 µM | – | – | – | – | – | – | – | – | – | – |
| O=C1C=CC(=O)C1(Br)Br | 29.7 µM | 49 µM | 29.4 µM | 27.2 µM | 38.1 µM | 41.5 µM | 39.9 µM | 20.1 µM | 30.4 µM | 24.5 µM | – | – | – | – | – | – | – | – | – | – |
| CS(=O)(=O)N1CCN(Cc2cc3nc(-c4cccc5[nH]ncc45)nc(N4CCOCC4)c3s2)CC1 (tested in a mixture with another compound) | – | 34 µM | 0.415 µM | – | – | 1.99 µM | – | > 100 µM | 0.108 µM | 0.164 µM | 0.087 µM | 0.0575 µM | 0.0826 µM | 0.169 µM | 0.277 µM | 0.139 µM | 0.26 µM | 3.48 µM | 0.0319 µM | 0.021 µM |
| O=C1C(Cl)=C(Nc2ccc3cn[nH]c3c2)C(=O)c2ccccc21 | 4.6 µM | 4.45 µM | 14.7 µM | 1.92 µM | 3.01 µM | 1.95 µM | 1.81 µM | 2.43 µM | 3.2 µM | 3.03 µM | 1.5 µM | 1.7 µM | 3.23 µM | 0.562 µM | 1.59 µM | 0.666 µM | 0.413 µM | 0.31 µM | 1.81 µM | 1.67 µM |
| CC(=O)O[C@H]1[C@@H]2[C@@H]3[C@@H](C[C@H]1C)[C@@H](C)CO[C@@]1(C)CC/C=C(/C)C[C@@H]2O[C@@H]31 | > 100 µM | > 100 µM | > 100 µM | > 100 µM | > 100 µM | > 100 µM | > 100 µM | > 100 µM | > 100 µM | > 100 µM | – | – | – | – | – | – | – | – | – | – |
| Cc1cc(S(=O)(=O)Nc2nc3ccsc3c(=O)n2Cc2ccco2)c(S)cc1Cl | > 100 µM | > 100 µM | > 100 µM | > 100 µM | > 100 µM | > 100 µM | > 100 µM | > 100 µM | > 100 µM | > 100 µM | > 100 µM | 25.5 µM | > 100 µM | > 100 µM | > 100 µM | > 100 µM | > 100 µM | 59 µM | > 100 µM | > 100 µM |
| CCCCCCCCCCCCCC/C(C(=O)OC)=C(/O)C(=O)OCC | > 100 µM | > 100 µM | 59.8 µM | 39.3 µM | 37.4 µM | > 100 µM | > 100 µM | > 100 µM | > 100 µM | > 100 µM | – | – | – | – | – | – | – | – | – | – |
| CCOC(=O)/C=C1\SC(=Nc2ccc(C#N)cc2)N(CCN2C(=O)/C(=C/C(=O)OCC)SC2=Nc2ccc(C#N)cc2)C1=O | 28.7 µM | 25.6 µM | 5.48 µM | 1.28 µM | 18.2 µM | 30 µM | 18.1 µM | 2.99 µM | 12.8 µM | 36.1 µM | 5.2 µM | 2.66 µM | 1.17 µM | 0.585 µM | 3.3 µM | 11 µM | 3.52 µM | 0.415 µM | 3.53 µM | 5.02 µM |
